ChEMBL document CHEMBL1144883, “Design, synthesis, and SAR of potent and selective dipeptide-derived inhibitors for dipeptidyl peptidases” (J Med Chem, 2003)

Legend:
Dipeptidyl peptidase 2 [1] = molecular target: T1, Dipeptidyl peptidase 2 (Homo sapiens, UniProt Q9UHL4)
Dipeptidyl peptidase 4 [2] = molecular target: T2, Dipeptidyl peptidase 4 (Homo sapiens, UniProt P27487)
Dipeptidyl peptidase 4 [3] = molecular target: T2, Dipeptidyl peptidase 4; remark: listed apart in the source
Dipeptidyl peptidase 2 [4] = molecular target: T1, Dipeptidyl peptidase 2; remark: listed apart in the source
Dipeptidyl peptidase 2 [5] = molecular target: T1, Dipeptidyl peptidase 2; assay: Inhibitory activity of compound against Dipeptidylpeptidase II (DPP II)

T2 sequence (P27487 whole entry): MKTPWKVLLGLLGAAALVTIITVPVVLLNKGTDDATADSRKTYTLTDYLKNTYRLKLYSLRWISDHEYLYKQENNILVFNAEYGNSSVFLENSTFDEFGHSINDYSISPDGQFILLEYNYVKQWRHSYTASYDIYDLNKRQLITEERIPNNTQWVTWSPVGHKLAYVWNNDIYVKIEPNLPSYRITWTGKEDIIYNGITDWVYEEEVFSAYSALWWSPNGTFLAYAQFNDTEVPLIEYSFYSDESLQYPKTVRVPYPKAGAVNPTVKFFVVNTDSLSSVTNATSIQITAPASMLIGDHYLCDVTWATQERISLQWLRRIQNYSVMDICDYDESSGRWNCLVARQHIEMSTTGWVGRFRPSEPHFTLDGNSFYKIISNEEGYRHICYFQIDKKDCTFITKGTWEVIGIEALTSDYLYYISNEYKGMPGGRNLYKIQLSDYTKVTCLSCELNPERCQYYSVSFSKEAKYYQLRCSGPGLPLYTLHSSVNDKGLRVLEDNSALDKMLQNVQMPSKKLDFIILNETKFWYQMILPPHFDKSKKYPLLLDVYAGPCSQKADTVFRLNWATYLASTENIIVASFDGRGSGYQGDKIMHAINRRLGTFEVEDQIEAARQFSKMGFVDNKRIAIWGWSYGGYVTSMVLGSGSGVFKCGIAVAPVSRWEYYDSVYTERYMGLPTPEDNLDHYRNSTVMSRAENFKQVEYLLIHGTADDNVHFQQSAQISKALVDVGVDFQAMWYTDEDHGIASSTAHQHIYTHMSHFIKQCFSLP

| Compound | IC50 (Dipeptidyl peptidase 2 [1]) | IC50 (Dipeptidyl peptidase 4 [2]) | IC50 (Dipeptidyl peptidase 4 [3]) | IC50 (Dipeptidyl peptidase 2 [4]) | IC50 (Dipeptidyl peptidase 2 [5]) |
| --- | --- | --- | --- | --- | --- |
| N=C(N)NCCCC(N)C(=O)N1CCCCC1 (stereo not drawn) | 0.63 µM | 18.1 µM | – | – | – |
| NCCC[C@H](N)C(=S)N1CCCCC1 | 0.2 µM | > 1000 µM | – | – | – |
| NCCCCC(N)C(=O)N1CCC(O)C1 (stereo not drawn) | 48 µM | 500 µM | – | – | – |
| CCCN(C)C(=O)C(N)C(C)CC (stereo not drawn) | 213 µM | 377 µM | – | – | – |
| N#C[C@@H]1CCCN1C(=O)[C@@H](N)CCCCN | 1 µM | 0.32 µM | – | – | – |
| NCCCC[C@H](N)C(=O)N1CCCCC1 (stereo in doubt; 9.5) | 2.1 µM | 135 µM | – | – | – |
| NCCCCC(N)C(=O)N1CCSC1 (stereo not drawn) | 3 µM | 318 µM | 318 µM | 3 µM | – |
| NC(C(=O)N1CCCCC1)C1CCCCC1 (stereo not drawn) | 9.9 µM | 217 µM | – | – | – |
| CCC(C)C(N)C(=O)N1CCCCCC1 (stereo not drawn) | 228 µM | 374 µM | – | – | – |
| NCCC(N)C(=O)N1CCCCC1 (stereo in doubt; 9.10) | 191 µM | > 1000 µM | – | – | – |
| NCC(=O)N1CCCC1 | > 1000 µM | – | – | – | – |
| CCCCC(N)C(=O)N1CCCCC1 (stereo not drawn) | 32.4 µM | 250 µM | – | – | – |
| NCCCC(N)C(=O)N1CCSC1 (stereo not drawn) | 0.75 µM | 81 µM | – | – | – |
| CCCC(N)C(=O)N1CCCCC1 (stereo not drawn) | 57.1 µM | 229 µM | – | – | – |
| NCCCC[C@@H](N)C(=S)N1CCCCC1 | 0.49 µM | > 1000 µM | – | – | – |
| NCC[C@H](N)C(=S)N1CCCCC1 | 0.22 µM | > 1000 µM | – | – | – |
| CCC(C)C(N)C(=O)N1CCC(OC(=O)c2ccccc2)C1 (stereo not drawn) | 158 µM | > 500 µM | – | – | – |
| CCC(C)C(N)C(=O)N1CCCCC1 (stereo not drawn) | 59 µM | – | – | – | – |
| CCC(C)C(N)C(=O)N1CC=CCC1 (stereo not drawn) | 52 µM | 52 µM | – | – | – |
| CCC(C)C(N)C(=O)N1CCC(F)C1 (stereo not drawn) | 111 µM | 3.5 µM | – | – | – |
| CCC(C)C(N)C(=O)N1CC=CC1 (stereo not drawn) | 288 µM | – | – | – | – |
| O=C(C1CCCS1)N1CCCC1 (stereo not drawn) | > 500 µM | > 500 µM | – | – | – |
| [N-]=[N+]=NC1CCN(C(=O)C(N)CCCCN)C1 (stereo not drawn) | 4.9 µM | – | – | – | – |
| CCC(C)C(N)C(=O)N1CCC1 (stereo not drawn) | 730 µM | 50.4 µM | – | – | – |
| NC(CO)C(=O)N1CCCCC1 (stereo not drawn) | 62 µM | 67 µM | – | – | – |

| Compound | IC50 (Dipeptidyl peptidase 2 [1]) | IC50 (Dipeptidyl peptidase 4 [2]) | IC50 (Dipeptidyl peptidase 4 [3]) | IC50 (Dipeptidyl peptidase 2 [4]) | IC50 (Dipeptidyl peptidase 2 [5]) |
| --- | --- | --- | --- | --- | --- |
| NCCCCC(N)C(=O)N1CCC1 (stereo not drawn) | 159 µM | 500 µM | – | – | – |
| NCCC(N)C(=O)N1CCSC1 (stereo not drawn) | 0.14 µM | 289 µM | – | – | – |
| NCC(N)C(=O)N1CCCCC1 (stereo not drawn) | 1.84 µM | > 1000 µM | – | – | – |
| N[C@@H](CC(=O)O)C(=O)N1CCCC1 | > 500 µM | – | – | – | – |
| NCC[C@@H](N)C(=O)N1CCCCC1 | 130 µM | > 1000 µM | – | – | – |
| O=C([C@@H]1CCCN1)N1CCCC1 | > 500 µM | – | – | – | – |
| NCCC(N)C(=O)N1CCNCC1 (stereo not drawn) | 29.3 µM | > 1000 µM | – | – | – |
| NCCCCC(N)C(=O)N1CC=CCC1 (stereo not drawn) | 10.9 µM | > 500 µM | – | – | – |
| NCCCCC(N)C(=O)N1CCC(OC(=O)c2ccccc2)C1 (stereo not drawn) | 78.1 µM | > 1000 µM | – | – | – |
| N#C[C@@H]1CCCCN1C(=O)C(N)CCN (stereo partly drawn) | – | 151 µM | – | – | 0.038 µM |
| O=C(CNC1CCCC1)NC(c1ccccc1)P(=O)(Oc1ccccc1)Oc1ccccc1 (stereo not drawn) | – | > 125 µM | – | – | – |
| CCC(C)C(N)C(=O)N(C)C (stereo not drawn) | > 1000 µM | 360 µM | – | – | – |
| NCCCCC(N)C(=O)N1CCCCCC1 (stereo not drawn) | 51.9 µM | > 1000 µM | – | – | – |
| CCC(C)C(N)C(=O)N(CC)CC (stereo not drawn) | > 500 µM | > 500 µM | – | – | – |
| NCCCC[C@H](N)C(=O)N1CCCCC1 (stereo in doubt; 8.4) | 1.6 µM | 247 µM | – | – | – |
| NCCC(N)C(=O)N1CCCCC1 (stereo in doubt; 9.7) | 0.13 µM | > 1000 µM | – | – | – |
| CCC(C)C(N)C(=O)N1CCC(N=[N+]=[N-])C1 (stereo not drawn) | 43 µM | 107 µM | – | – | – |
| CCC(C)C(N)C(=O)N1CCC(O)C1 (stereo not drawn) | 299 µM | 93 µM | – | – | – |
| CCC(C)C(N)C(=O)NC1CCCC1 (stereo not drawn) | 500 µM | > 1000 µM | – | – | – |
| NCCC(N)C(=O)N1CCOCC1 (stereo not drawn) | 0.51 µM | > 1000 µM | – | – | – |
| N#CC1CCCCN1C(=O)C(N)CCCCN (stereo not drawn) | 1.5 µM | 51 µM | – | – | – |
| CCC(C)C(N)C(=O)N(C)CC (stereo not drawn) | > 500 µM | 167 µM | – | – | – |
| NCCC(N)C(=O)N1CCCCC1 (stereo in doubt; 9.9) | 1.15 µM | 500 µM | – | – | – |
| CCC(N)C(=O)N1CCCCC1 (stereo not drawn) | 88.7 µM | 250 µM | – | – | – |
